Data: patent US10517889B2, “Modulators of SMAD7 expression” (Ionis Pharmaceuticals, Inc., priority 2017, dated 2019)

How the values were obtained:
[1] = Blood chemistry markers after oral gavage in CD-1 mice (Example 7); assay type: in vivo; settings: 500 mg/kg oral gavage once daily for 4 weeks, day 30
Description: The objective of this study was to evaluate the tolerability and pharmacodynamics of select Ionis human SMAD7 antisense oligonucleotides in CD-1 mice following 4 weeks of treatment. The mice were administered oligonucleotides by oral gavage.
Groups of 7-8 week old male CD-1 mice were given an oral gavage dose once daily for 4 weeks of 500 mg/kg of Ionis SMAD7 oligonucleotides. Each group contained 8 mice. One group of male CD-1 mice was administered saline by oral gavage daily.
Levels of transaminases, albumin, and BUN were measured using a Toshiba 200FR NEO chemistry analyzer (Toshiba Co., Japan).

[2] = test system: human peripheral blood mononuclear cells (PBMCs); assay: Human PBMC activation assay, cytokine levels (IL-10, IL-6, MCP-1, TNF-α) in supernatant after 24 hours (Example 9); settings: human PBMC supernatant after 24 hours
Description: Ionis SMAD7 oligonucleotides were tested in an in vitro assay for potential immunostimulatory properties in an in vitro human peripheral blood mononuclear cell (PBMC) activation assay.
Blood samples were collected from healthy human volunteers in heparinized vials and mixed well. Human PBMCs were isolated by gradient centrifugation using Ficoll-Histopaque. The cells were washed, counted and resuspended in medium. The PBMCs were plated in a 24-well culture plate and various concentrations of oligonucleotides were added to the media. An oligonucleotide historically known to promote an inflammatory response was used as a positive control, whereas an oligonucleotide known not to be pro-inflammatory was used as a negative control. […] The supernatants were collected after 24 hours and analyzed for cytokine levels using MSD platform.

[3] = Hematology assays after subcutaneous administration in beagle dogs (Example 8); assay type: in vivo; settings: 30 mg/kg subcutaneous days 1, 3, 5, 8, 15, 22, 29
Description: (§1) There were 4 animals per group.
Blood samples were collected from the cephalic vein or saphenous vein of each animal. About 0.5 mL of blood samples was put into tubes containing the potassium salt of EDTA. Blood obtained from all dog groups was measured using an ADVIA2120i hematology analyzer for measurements of the various blood cells, as well as other hematology markers.

[4] = Oligonucleotide concentration in tissues by LC-MS/MS after subcutaneous administration in beagle dogs (Example 8); assay type: in vivo; settings: 30 mg/kg subcutaneous, 48 hours after the last dose
Description: as §1
Oligonucleotide concentrations of both ION 830025 and ION 798781 were detected in various tissues by LC-MS/MS analysis. The results are presented below, expressed as μg/g tissue. The data was collected 48 hours after the last dose.

mouse Smad7 mRNA = assay: Pharmacology: mouse Smad7 mRNA expression in liver, kidney, duodenum, ileum and colon after subcutaneous administration in CD-1 mice (Example 6); assay type: in vivo; settings: 50 mg/kg subcutaneous twice weekly for 7 weeks, normalized to GAPDH
Description: Groups of 8-9 week old male CD-1 mice were injected subcutaneously twice a week for 7 weeks with 50 mg/kg of Ionis oligonucleotides (100 mg/kg/week dose). Each group contained 4 mice. One group of male CD-1 mice was injected subcutaneously twice a week for 7 weeks with PBS. Plasma was collected for analysis on day 28.
The pharmacological activity of the Ionis oligonucleotides in mice was assessed by measuring mouse Smad7 mRNA expression in liver, kidney, duodenum, ileum, and colon at necropsy.
Tissue samples from all mice were analyzed for Smad7 mRNA expression using the primer probe set HTS7555 (forward sequence […], designated SEQ ID NO: 2737; reverse sequence […], designated SEQ ID NO: 2738; probe sequence […], designated SEQ ID NO: 2739), which was normalized to mRNA levels of the housekeeping gene, GAPDH. One-way ANOVA with Dunnet's comparison test was used for statistical analysis.

human SMAD7 mRNA = assay: Dose-dependent inhibition of human SMAD7 mRNA expression in A431 cells, oligonucleotide added without transfection (Example 5, Study 1); assay type: cell-based; settings: approximately 48 hours
Description: The newly designed compounds disclosed herein are cEt-modified antisense oligonucleotides. […] The studies described below show a comparison of select cEt-modified gapmers and ION0736697/Mongersen.
A431 cells were plated in collagen I-coated 96-well plates in DMEM with […]. Immediately after plating, 0.08 μM, 0.25 μM, 0.74 μM, 2.22 μM, 6.67 μM, or 20.00 μM concentrations of antisense oligonucleotide were added. The plates were shaken briefly before incubating at 37° C. and 10% CO2. After a treatment period of approximately 48 hours, the cells were washed and lyzed and RNA on 384-well Pall plates with DNase I treatment. SMAD7 mRNA levels were measured by quantitative real-time PCR. Primer probe set RTS5062 was used to measure human SMAD7 mRNA levels. SMAD7 mRNA levels were adjusted according to total RNA content, as measured by RIBOGREEN®. Results are presented as percent inhibition of SMAD7 mRNA expression, relative to untreated control cells.
All Ionis oligonucleotides had greater potency than ION 736697/Mongersen.

Substance: 829994 (GGAGGCAGGGCCGCGA; 3-10-3 cEt gapmer, further chemistry not given here) [compound 829994]
- ALT [1]: 38 IU/L
- AST [1]: 71 IU/L
- Albumin [1]: 3.2 g/dL
- BUN [1]: 25 mg/dL
- Bilirubin [1]: 0.3 mg/dL
- Levels of IL-6 ([2]; 0.0128 μM oligonucleotide): 4.1 pg/mL
- Levels of IL-10 ([2]; 0.0128 μM oligonucleotide): 2.0 pg/mL
- Levels of MCP-1 ([2]; 0.0128 μM oligonucleotide): 299.8 pg/mL
- Levels of TNF-α ([2]; 0.0128 μM oligonucleotide): 2.5 pg/mL
- Levels of IL-6 ([2]; 0.064 μM oligonucleotide): 3.8 pg/mL
- Levels of IL-10 ([2]; 0.064 μM oligonucleotide): 1.8 pg/mL
- Levels of MCP-1 ([2]; 0.064 μM oligonucleotide): 379.8 pg/mL
- Levels of TNF-α ([2]; 0.064 μM oligonucleotide): 2.9 pg/mL
- Levels of IL-6 ([2]; 0.32 μM oligonucleotide): 4.5 pg/mL
- Levels of IL-10 ([2]; 0.32 μM oligonucleotide): 1.8 pg/mL
- Levels of MCP-1 ([2]; 0.32 μM oligonucleotide): 489.7 pg/mL
- Levels of TNF-α ([2]; 0.32 μM oligonucleotide): 3.0 pg/mL
- Levels of IL-6 ([2]; 1.6 μM oligonucleotide): 15.9 pg/mL
- Levels of IL-10 ([2]; 1.6 μM oligonucleotide): 5.2 pg/mL
- Levels of MCP-1 ([2]; 1.6 μM oligonucleotide): 1300.0 pg/mL
- Levels of TNF-α ([2]; 1.6 μM oligonucleotide): 8.0 pg/mL
- Levels of IL-6 ([2]; 8 μM oligonucleotide): 202.5 pg/mL
- Levels of IL-10 ([2]; 8 μM oligonucleotide): 8.0 pg/mL
- Levels of MCP-1 ([2]; 8 μM oligonucleotide): 3370.0 pg/mL
- Levels of TNF-α ([2]; 8 μM oligonucleotide): 63.2 pg/mL
- Levels of IL-6 ([2]; 40 μM oligonucleotide): 66.1 pg/mL
- Levels of IL-10 ([2]; 40 μM oligonucleotide): 4.3 pg/mL
- Levels of MCP-1 ([2]; 40 μM oligonucleotide): 1998.4 pg/mL
- Levels of TNF-α ([2]; 40 μM oligonucleotide): 32.3 pg/mL
- Levels of IL-6 ([2]; 200 μM oligonucleotide): 97.1 pg/mL
- Levels of IL-10 ([2]; 200 μM oligonucleotide): 3.8 pg/mL
- Levels of MCP-1 ([2]; 200 μM oligonucleotide): 391.7 pg/mL
- Levels of TNF-α ([2]; 200 μM oligonucleotide): 28.6 pg/mL
- Basophils [3]: 0.5%
- Eosinophils [3]: 1.8%
- Hematocrit [3]: 44%
- Hemoglobin [3]: 15.3 g/dL
- Lymphocytes [3]: 26%
- MCH [3]: 23.2 pg
- MCHC [3]: 35.1 g/dL
- MCV [3]: 66 fL
- Monocytes [3]: 6.3%
- Neutrophils [3]: 65%
- PLT [3]: 287 ^3/μL
- RBC [3]: 6.6 ^6/L
- Reticulocytes [3]: 0.9%
- WBC [3]: 12.5 ^3/μL
- Full length oligonucleotide, Distal colon [4]: 7 µg/g
- Full length oligonucleotide, Duodenum [4]: 23 µg/g
- Full length oligonucleotide, Ileum [4]: 12 µg/g
- Full length oligonucleotide, Kidney [4]: 894 µg/g
- Full length oligonucleotide, Liver [4]: 335 µg/g
- Full length oligonucleotide, Proximal colon [4]: 11 µg/g
- % inhibition of Smad7 mRNA expression (compared to control), Kidney (mouse Smad7 mRNA): 73%
- % inhibition of Smad7 mRNA expression (compared to control), Liver (mouse Smad7 mRNA): 58%

Substance: 830037 (antisense CTATTGGCTGATCTGG; 3-10-3 cEt gapmer, further chemistry not given here) [compound 830037]
- ALT [1]: 62 IU/L
- AST [1]: 94 IU/L
- Albumin [1]: 3.3 g/dL
- BUN [1]: 26 mg/dL
- Bilirubin [1]: 0.3 mg/dL
- Levels of IL-6 ([2]; 0.0128 μM oligonucleotide): 3.8 pg/mL
- Levels of IL-10 ([2]; 0.0128 μM oligonucleotide): 1.6 pg/mL
- Levels of MCP-1 ([2]; 0.0128 μM oligonucleotide): 369.4 pg/mL
- Levels of TNF-α ([2]; 0.0128 μM oligonucleotide): 3.2 pg/mL
- Levels of IL-6 ([2]; 0.064 μM oligonucleotide): 9.8 pg/mL
- Levels of IL-10 ([2]; 0.064 μM oligonucleotide): 3.2 pg/mL
- Levels of MCP-1 ([2]; 0.064 μM oligonucleotide): 557.1 pg/mL
- Levels of TNF-α ([2]; 0.064 μM oligonucleotide): 4.1 pg/mL
- Levels of IL-6 ([2]; 0.32 μM oligonucleotide): 26.7 pg/mL
- Levels of IL-10 ([2]; 0.32 μM oligonucleotide): 8.2 pg/mL
- Levels of MCP-1 ([2]; 0.32 μM oligonucleotide): 1284.2 pg/mL
- Levels of TNF-α ([2]; 0.32 μM oligonucleotide): 8.2 pg/mL
- Levels of IL-6 ([2]; 1.6 μM oligonucleotide): 38.6 pg/mL
- Levels of IL-10 ([2]; 1.6 μM oligonucleotide): 9.5 pg/mL
- Levels of MCP-1 ([2]; 1.6 μM oligonucleotide): 1085.9 pg/mL
- Levels of TNF-α ([2]; 1.6 μM oligonucleotide): 9.2 pg/mL
- Levels of IL-6 ([2]; 8 μM oligonucleotide): 38.4 pg/mL
- Levels of IL-10 ([2]; 8 μM oligonucleotide): 7.1 pg/mL
- Levels of MCP-1 ([2]; 8 μM oligonucleotide): 1917.1 pg/mL
- Levels of TNF-α ([2]; 8 μM oligonucleotide): 11.1 pg/mL
- Levels of IL-6 ([2]; 40 μM oligonucleotide): 58.7 pg/mL
- Levels of IL-10 ([2]; 40 μM oligonucleotide): 4.7 pg/mL
- Levels of MCP-1 ([2]; 40 μM oligonucleotide): 3414.8 pg/mL
- Levels of TNF-α ([2]; 40 μM oligonucleotide): 16.6 pg/mL
- Levels of IL-6 ([2]; 200 μM oligonucleotide): 71.2 pg/mL
- Levels of IL-10 ([2]; 200 μM oligonucleotide): 3.8 pg/mL
- Levels of MCP-1 ([2]; 200 μM oligonucleotide): 2449.3 pg/mL
- Levels of TNF-α ([2]; 200 μM oligonucleotide): 18.9 pg/mL
- Basophils [3]: 0.7%
- Eosinophils [3]: 2.6%
- Hematocrit [3]: 52%
- Hemoglobin [3]: 17.5 g/dL
- Lymphocytes [3]: 32%
- MCH [3]: 22.1 pg
- MCHC [3]: 33.6 g/dL
- MCV [3]: 66 fL
- Monocytes [3]: 8.0%
- Neutrophils [3]: 57%
- PLT [3]: 280 ^3/μL
- RBC [3]: 8.0 ^6/L
- Reticulocytes [3]: 0.3%
- WBC [3]: 8.5 ^3/μL
- Full length oligonucleotide, Distal colon [4]: 46 µg/g
- Full length oligonucleotide, Duodenum [4]: 55 µg/g
- Full length oligonucleotide, Ileum [4]: 67 µg/g
- Full length oligonucleotide, Kidney [4]: 894 µg/g
- Full length oligonucleotide, Liver [4]: 521 µg/g
- Full length oligonucleotide, Proximal colon [4]: 86 µg/g
- % inhibition of SMAD7 mRNA expression (human SMAD7 mRNA; 0.08 μM): 10%
- % inhibition of SMAD7 mRNA expression (human SMAD7 mRNA; 0.25 μM): 31%
- % inhibition of SMAD7 mRNA expression (human SMAD7 mRNA; 0.74 μM): 29%
- % inhibition of SMAD7 mRNA expression (human SMAD7 mRNA; 2.22 μM): 42%
- % inhibition of SMAD7 mRNA expression (human SMAD7 mRNA; 6.67 μM): 61%
- % inhibition of SMAD7 mRNA expression (human SMAD7 mRNA; 20.00 μM): 67%
- IC50 (human SMAD7 mRNA; SMAD7 mRNA): 3.4 µM
- % inhibition of Smad7 mRNA expression (compared to control), Kidney (mouse Smad7 mRNA): 7%
- % inhibition of Smad7 mRNA expression (compared to control), Liver (mouse Smad7 mRNA): 24%
